Source: ChEMBL document CHEMBL1129270, “Aza-peptide analogs as potent human immunodeficiency virus type-1 protease inhibitors with oral bioavailability” (J Med Chem, 1996)

Tests used:
[1] = biological target: Human immunodeficiency virus type 1 protease (Human immunodeficiency virus 1) (UniProt Q72874); experiment: In vivo for antiviral activity (ED90) against HIV-1 protease.; assay type: organism-based
[2] = biological target: Human immunodeficiency virus type 1 protease (Human immunodeficiency virus 1) (UniProt Q72874); experiment: In vivo antiviral activity (IC50) against HIV-1 protease.; assay type: organism-based
[3] = Plasma Concentration after 90 min of oral administration to mice; assay type: ADME, organism-based; conditions: mouse
[4] = Plasma Concentration after 30 min of oral administration to mice; assay type: ADME, organism-based; conditions: mouse
[5] = Plasma Concentration after 120 min of oral administration to mice; assay type: ADME, organism-based; conditions: mouse
Mus musculus (mouse) = experiment: Plasma Concentration after 60 min of oral administration to mice
[6] = Compound was tested in vivo for antiviral activity (C120/ED50) against HIV Protease.; assay type: functional

SMILES	ED90 [1] [nM]	ED50 [2] [nM]	concentration at 1.5 h [3] [nM]	concentration at 0.5 h [4] [nM]	concentration at 2 h [5] [nM]	concentration at 1 h (Mus musculus (mouse)) [nM]	C120/ED50 [6]
CC(C)CN(C[C@H](O)[C@H](Cc1ccccc1)NC(=O)[C@H](CC(N)=O)NC(=O)c1ccc2ccccc2n1)NC(=O)C(NC(=O)OCc1ccccc1)C(C)C (some centres undefined)	30	12	–	–	–	–	–
CCOC(=O)NC(C(=O)NN(CC1CCCCC1)C[C@H](O)[C@H](Cc1ccccc1)NC(=O)[C@H](CC(N)=O)NC(=O)c1ccc2ccccc2n1)C(C)C (some centres undefined)	30	9.4	–	–	–	–	–
COCCOCCOC(=O)NC(C(=O)N[C@@H](Cc1ccccc1)[C@H](O)CN(CC1CCCCC1)NC(=O)C(NC(=O)OCCOCCOC)C(C)C)C(C)C (some centres undefined)	10000	41	–	–	–	–	–
COc1ccc(CN(C[C@H](O)[C@H](Cc2ccccc2)NC(=O)[C@H](CC(N)=O)NC(=O)c2ccc3ccccc3n2)NC(=O)C(NC(=O)OCc2ccccc2)C(C)C)cc1 (some centres undefined)	30	15	–	–	–	–	–
CCOC(=O)NC(C(=O)N[C@@H](Cc1ccccc1)[C@H](O)CN(CC1CCCCC1)NC(=O)C(NC(=O)OCCOC)C(C)C)C(C)C (some centres undefined)	100	15	1000	1000	1500	2200	100
C=CCOC(=O)NC(C(=O)N[C@@H](Cc1ccccc1)[C@H](O)CN(CC1CCCCC1)NC(=O)C(NC(=O)OCC=C)C(C)C)C(C)C (some centres undefined)	1000	83	900	800	1000	1200	12
CCOC(=O)NC(C(=O)NN(CC1CCCCC1)C[C@@H](O)[C@H](Cc1ccccc1)NC(=O)C(NC(=O)OCCOC)C(C)C)C(C)C (some centres undefined)	100	24	< 200	< 200	< 200	< 200	–
COCCOC(=O)NC(C(=O)N[C@@H](Cc1ccccc1)[C@H](O)CN(CC1CCCCC1)NC(=O)C(NC(=O)OCCOC)C(C)C)C(C)C (some centres undefined)	300	79	< 500	2700	< 500	1100	–
COC(=O)NC(C(=O)NN(CC(C)C)C[C@H](O)[C@H](Cc1ccccc1)NC(=O)[C@H](CC(N)=O)NC(=O)c1ccc2ccccc2n1)C(C)C (some centres undefined)	300	63	–	–	–	–	–
CC(C)C(NC(=O)OCc1ccccc1)C(=O)NN(CC1CCCCC1)C[C@H](O)[C@H](Cc1ccccc1)NC(=O)[C@H](CC(N)=O)NC(=O)c1ccc2ccccc2n1 (some centres undefined)	30	9.8	800	300	1100	200	73
CCOC(=O)NC(C(=O)N[C@@H](Cc1ccccc1)[C@H](O)CN(CC1CCCCC1)NC(=O)C(NC(=O)OCC)C(C)C)C(C)C (some centres undefined)	1000	55	7800	6700	8700	6700	158
CC(C)(C)NC(=O)[C@@H]1C[C@@H]2CCCC[C@@H]2CN1C[C@@H](O)[C@H](Cc1ccccc1)NC(=O)[C@H](CC(N)=O)NC(=O)c1ccc2ccccc2n1	10	4.5	–	–	–	–	–
COC(=O)NC(C(=O)NN(CC1CCCCC1)C[C@H](O)[C@H](Cc1ccccc1)NC(=O)[C@H](CC(N)=O)NC(=O)c1ccc2ccccc2n1)C(C)C (some centres undefined)	100	18	–	–	–	–	–

The next lines start with results.

ED90 [1] [nM]	ED50 [2] [nM]	concentration at 1.5 h [3] [nM]	concentration at 0.5 h [4] [nM]	concentration at 2 h [5] [nM]	concentration at 1 h (Mus musculus (mouse)) [nM]	SMILES	C120/ED50 [6]
100	18	–	–	–	–	COC(=O)N[C@H](C(=O)N[C@@H](Cc1ccccc1)C(O)CN(CC1CCCCC1)NC(=O)[C@@H](NC(=O)OC)C(C)C)C(C)C (some centres undefined)	–
1000	49	–	–	–	–	COC(=O)N[C@H](C(=O)N[C@@H](Cc1ccccc1)C(O)CN(Cc1ccc(F)cc1)NC(=O)[C@@H](NC(=O)OC)C(C)C)C(C)C (some centres undefined)	–
30	9	< 200	< 200	< 200	–	COC(=O)N[C@H](C(=O)N[C@@H](Cc1ccccc1)C(O)CN(Cc1ccc(OC)cc1)NC(=O)[C@@H](NC(=O)OC)C(C)C)C(C)C (some centres undefined)	–
100	28	–	–	–	–	COC(=O)N[C@H](C(=O)N[C@@H](Cc1ccccc1)C(O)CN(Cc1ccc(OC)c(OC)c1OC)NC(=O)[C@@H](NC(=O)OC)C(C)C)C(C)C (some centres undefined)	–
30	2.7	400	< 200	300	600	COC(=O)N[C@H](C(=O)N[C@@H](Cc1ccccc1)C(O)CN(CCC(C)C)NC(=O)[C@@H](NC(=O)OC)C(C)C)C(C)C (some centres undefined)	111
1000	118	–	–	–	–	COC(=O)NC(C(=O)NN(Cc1ccc(OC)cc1)C[C@H](O)[C@H](Cc1ccccc1)NC(=O)[C@H](CC(N)=O)NC(=O)c1ccc2ccccc2n1)C(C)C (some centres undefined)	–
100	14	< 500	< 500	< 500	< 500	COCCOC(=O)NC(C(=O)NC(Cc1ccccc1)C(O)CN(CC1CCCCC1)NC(=O)C(NC(=O)OC)C(C)C)C(C)C (centres undefined)	–
1000	150	–	–	–	–	COC(=O)N[C@H](C(=O)N[C@@H](Cc1ccccc1)C(O)CN(Cc1ccc(O)cc1)NC(=O)[C@@H](NC(=O)OC)C(C)C)C(C)C (some centres undefined)	–
1000	23	–	–	–	–	COC(=O)N[C@H](C(=O)N[C@@H](Cc1ccccc1)C(O)CN(CC(C)C)NC(=O)[C@@H](NC(=O)OC)C(C)C)C(C)C (some centres undefined)	–
100	28	3000	1000	3100	2800	COCCOC(=O)NC(C(=O)NN(CC1CCCCC1)C[C@@H](O)[C@H](Cc1ccccc1)NC(=O)C(NC(=O)OC)C(C)C)C(C)C (some centres undefined)	111
100	17	–	–	–	–	COC(=O)N[C@H](C(=O)N[C@@H](Cc1ccccc1)C(O)CN(Cc1cccs1)NC(=O)[C@@H](NC(=O)OC)C(C)C)C(C)C (some centres undefined)	–
30	6.2	< 200	< 200	< 200	< 200	COC(=O)N[C@H](C(=O)N[C@@H](Cc1ccccc1)C(O)CN(Cc1ccc(C)cc1)NC(=O)[C@@H](NC(=O)OC)C(C)C)C(C)C (some centres undefined)	–
1000	68	–	–	–	–	COC(=O)N[C@H](C(=O)N[C@@H](Cc1ccccc1)C(O)CN(Cc1ccc(C#N)cc1)NC(=O)[C@@H](NC(=O)OC)C(C)C)C(C)C (some centres undefined)	–
100	29	5800	3800	6000	2200	CCOC(=O)NC(C(=O)NN(CC1CCCCC1)C[C@@H](O)[C@H](Cc1ccccc1)NC(=O)C(NC(=O)OC)C(C)C)C(C)C (some centres undefined)	207
1000	72	1200	3200	1400	400	CCOC(=O)NC(C(=O)N[C@@H](Cc1ccccc1)[C@H](O)CN(CC1CCCCC1)NC(=O)C(NC(=O)OC)C(C)C)C(C)C (some centres undefined)	19
1000	300	–	–	–	–	COC(=O)N[C@H](C(=O)N[C@@H](Cc1ccccc1)[C@H](O)CN(CC1CCCCC1)NC(=O)[C@@H](NC(C)=O)C(C)C)C(C)C	–
100	17	–	–	–	–	COC(=O)N[C@H](C(=O)N[C@@H](Cc1ccccc1)C(O)CN(Cc1ccc(C(F)(F)F)cc1)NC(=O)[C@@H](NC(=O)OC)C(C)C)C(C)C (some centres undefined)	–
